How the values were obtained:
microorganisms = assay: Morphology, biofilm and growth disruption by peptides (Table 5); assay type: cell-based; design: key: A: Peptide aggregates; B: Less hyphal formation; Clumps; Diffuse clumps and small polyps; F: Diffuse growth; H: Thin; I: Growth inhibition; Microcolony formation; Rippled; Small polyps; Thick; W: Halo formation on top, microlonies on bottom
Source text: In certain embodiments peptides that induce alterations in phenotype or other biological activities can also be used as antimicrobial effector moieties.

bacteria = assay: Binding of targeting peptides to microorganisms (Table 3); conditions: peptide binding in aqueous buffers that varied depending on peptide solubility; preferably 1x PBS

PF-664 (chain 1 DQLCVEYPARVSTG; chain 2 DQLCVEYPARVSTG; Peptide with targeting and/or antimicrobial activity)
Organism, effect (morphology, biofilm and growth disruption) (microorganisms; E. faecalis): E. faecalis (R) | Organism, effect (morphology, biofilm and growth disruption) (microorganisms; MRSA): MRSA (R) | Organism, effect (morphology, biofilm and growth disruption) (microorganisms; S. epidermidis): S. epidermidis (M) | Organism, effect (morphology, biofilm and growth disruption) (microorganisms; S. pneumoniae): S. pneumoniae (M) | Target(s) (microorganism bound by the targeting peptide) (bacteria): M. smegmatis

PF-665 (chain 1 VLRVATAVGEVPTGL; chain 2 VLRVATAVGEVPTGL; Peptide with targeting and/or antimicrobial activity)
Organism, effect (morphology, biofilm and growth disruption) (microorganisms; S. pneumoniae): S. pneumoniae (H) | Target(s) (microorganism bound by the targeting peptide) (bacteria): Mycobacteria spp

PF-666 (chain 1 PNRRSRPR; chain 2 PNRRSRPR; Peptide with targeting and/or antimicrobial activity)
Organism, effect (morphology, biofilm and growth disruption) (microorganisms; S. pneumoniae): S. pneumoniae (A) | Target(s) (microorganism bound by the targeting peptide) (bacteria): Mycobacteria spp

PF-667 (chain 1 PAHQRLRIDQRLVADRDMVQDYES; chain 2 PAHQRLRIDQRLVADRDMVQDYES; Peptide with targeting and/or antimicrobial activity)
Organism, effect (morphology, biofilm and growth disruption) (microorganisms; E. faecalis): E. faecalis (R) | Organism, effect (morphology, biofilm and growth disruption) (microorganisms; MRSA): MRSA (R) | Organism, effect (morphology, biofilm and growth disruption) (microorganisms; S. epidermidis): S. epidermidis (R) | Organism, effect (morphology, biofilm and growth disruption) (microorganisms; S. pneumoniae): S. pneumoniae (R) | Target(s) (microorganism bound by the targeting peptide) (bacteria): Mycobacteria spp

PF-668 (chain 1 TNAESMALAFRGRVHMSVNIAGLT; chain 2 TNAESMALAFRGRVHMSVNIAGLT; Peptide with targeting and/or antimicrobial activity)
Organism, effect (morphology, biofilm and growth disruption) (microorganisms; B. subtilis): B. subtilis (A) | Organism, effect (morphology, biofilm and growth disruption) (microorganisms; C. albicans): C. albicans (A) | Organism, effect (morphology, biofilm and growth disruption) (microorganisms; C. jeikeium): C. jeikeium (D) | Organism, effect (morphology, biofilm and growth disruption) (microorganisms; E. faecalis): E. faecalis (D) | Organism, effect (morphology, biofilm and growth disruption) (microorganisms; MRSA): MRSA (R) | Organism, effect (morphology, biofilm and growth disruption) (microorganisms; S. epidermidis): S. epidermidis (M) | Organism, effect (morphology, biofilm and growth disruption) (microorganisms; S. pneumoniae): S. pneumoniae (M) | Target(s) (microorganism bound by the targeting peptide) (bacteria): Mycobacteria spp

PF-675 (chain 1 EIIPISPTRRCEMHTMSSAEYRGL; chain 2 EIIPISPTRRCEMHTMSSAEYRGL; Peptide with targeting and/or antimicrobial activity)
Organism, effect (morphology, biofilm and growth disruption) (microorganisms; E. faecalis): E. faecalis (R) | Organism, effect (morphology, biofilm and growth disruption) (microorganisms; S. pneumoniae): S. pneumoniae (C) | Target(s) (microorganism bound by the targeting peptide) (bacteria): Mycobacteria spp

PF-677 (chain 1 TCRGAGMH; chain 2 TCRGAGMH; Peptide with targeting and/or antimicrobial activity)
Organism, effect (morphology, biofilm and growth disruption) (microorganisms; E. faecalis): E. faecalis (R) | Organism, effect (morphology, biofilm and growth disruption) (microorganisms; MRSA): MRSA (D) | Organism, effect (morphology, biofilm and growth disruption) (microorganisms; S. epidermidis): S. epidermidis (R) | Organism, effect (morphology, biofilm and growth disruption) (microorganisms; S. pneumoniae): S. pneumoniae (D) | Target(s) (microorganism bound by the targeting peptide) (bacteria): Mycobacteria spp

PF-680 (chain 1 ADPHPTTGI; chain 2 ADPHPTTGI; Peptide with targeting and/or antimicrobial activity)
Organism, effect (morphology, biofilm and growth disruption) (microorganisms; MRSA): MRSA (R) | Target(s) (microorganism bound by the targeting peptide) (bacteria): Mycobacteria spp

PF-681 (chain 1 TALTTVGVSGARLITYCVGVEDI; chain 2 TALTTVGVSGARLITYCVGVEDI; Peptide with targeting and/or antimicrobial activity)
Organism, effect (morphology, biofilm and growth disruption) (microorganisms; C. jeikeium): C. jeikeium (R) | Organism, effect (morphology, biofilm and growth disruption) (microorganisms; E. faecalis): E. faecalis (R) | Organism, effect (morphology, biofilm and growth disruption) (microorganisms; MRSA): MRSA (M) | Organism, effect (morphology, biofilm and growth disruption) (microorganisms; S. epidermidis): S. epidermidis (M) | Organism, effect (morphology, biofilm and growth disruption) (microorganisms; S. pneumoniae): S. pneumoniae (M) | Target(s) (microorganism bound by the targeting peptide) (bacteria): M. smegmatis

PF-682 (chain 1 RRGKSEQGLSRR; chain 2 RRGKSEQGLSRR; Peptide with targeting and/or antimicrobial activity)
Organism, effect (morphology, biofilm and growth disruption) (microorganisms; S. pneumoniae): S. pneumoniae (A) | Target(s) (microorganism bound by the targeting peptide) (bacteria): Mycobacteria spp

PF-683 (chain 1 LWPVA; chain 2 LWPVA; Peptide with targeting and/or antimicrobial activity)
Organism, effect (morphology, biofilm and growth disruption) (microorganisms; MRSA): MRSA (R) | Organism, effect (morphology, biofilm and growth disruption) (microorganisms; S. epidermidis): S. epidermidis (R) | Organism, effect (morphology, biofilm and growth disruption) (microorganisms; S. pneumoniae): S. pneumoniae (H) | Target(s) (microorganism bound by the targeting peptide) (bacteria): Mycobacteria spp

PF-684 (chain 1 RKLSLASGFALWRRSLV; chain 2 RKLSLASGFALWRRSLV; Peptide with targeting and/or antimicrobial activity)
Organism, effect (morphology, biofilm and growth disruption) (microorganisms; C. albicans): C. albicans (B) | Organism, effect (morphology, biofilm and growth disruption) (microorganisms; E. faecalis): E. faecalis (A) | Organism, effect (morphology, biofilm and growth disruption) (microorganisms; S. pneumoniae): S. pneumoniae (C) | Target(s) (microorganism bound by the targeting peptide) (bacteria): Mycobacteria spp

PF-685 (chain 1 PTLWLACL; chain 2 PTLWLACL; Peptide with targeting and/or antimicrobial activity)
Organism, effect (morphology, biofilm and growth disruption) (microorganisms; C. jeikeium): C. jeikeium (R) | Organism, effect (morphology, biofilm and growth disruption) (microorganisms; E. faecalis): E. faecalis (R) | Organism, effect (morphology, biofilm and growth disruption) (microorganisms; MRSA): MRSA (M) | Organism, effect (morphology, biofilm and growth disruption) (microorganisms; S. epidermidis): S. epidermidis (M) | Organism, effect (morphology, biofilm and growth disruption) (microorganisms; S. pneumoniae): S. pneumoniae (M) | Target(s) (microorganism bound by the targeting peptide) (bacteria): Mycobacteria spp

PF-686 (chain 1 LAVLMGYIGYRGWSGKRHINRQ; chain 2 LAVLMGYIGYRGWSGKRHINRQ; Peptide with targeting and/or antimicrobial activity)
Organism, effect (morphology, biofilm and growth disruption) (microorganisms; B. subtilis): B. subtilis (I) | Organism, effect (morphology, biofilm and growth disruption) (microorganisms; C. albicans): C. albicans (B) | Organism, effect (morphology, biofilm and growth disruption) (microorganisms; E. faecalis): E. faecalis (R) | Organism, effect (morphology, biofilm and growth disruption) (microorganisms; MRSA): MRSA (M) | Organism, effect (morphology, biofilm and growth disruption) (microorganisms; S. epidermidis): S. epidermidis (H) | Organism, effect (morphology, biofilm and growth disruption) (microorganisms; S. pneumoniae): S. pneumoniae (A) | Target(s) (microorganism bound by the targeting peptide) (bacteria): M. smegmatis

PF-687 (chain 1 AKRVLSLAVAPHRRQPVQGT; chain 2 AKRVLSLAVAPHRRQPVQGT; Peptide with targeting and/or antimicrobial activity)
Organism, effect (morphology, biofilm and growth disruption) (microorganisms; S. pneumoniae): S. pneumoniae (A) | Target(s) (microorganism bound by the targeting peptide) (bacteria): Mycobacteria spp

PF-688 (chain 1 ARNHAVIPAG; chain 2 ARNHAVIPAG; Peptide with targeting and/or antimicrobial activity)
Organism, effect (morphology, biofilm and growth disruption) (microorganisms; S. pneumoniae): S. pneumoniae (A) | Target(s) (microorganism bound by the targeting peptide) (bacteria): Mycobacteria spp

PF-690 (chain 1 MIPLAGDPVSSHRTVEFGVLGTYLVSGGSL; chain 2 MIPLAGDPVSSHRTVEFGVLGTYLVSGGSL; Peptide with targeting and/or antimicrobial activity)
Organism, effect (morphology, biofilm and growth disruption) (microorganisms; E. faecalis): E. faecalis (R) | Organism, effect (morphology, biofilm and growth disruption) (microorganisms; MRSA): MRSA (R) | Organism, effect (morphology, biofilm and growth disruption) (microorganisms; S. epidermidis): S. epidermidis (R) | Organism, effect (morphology, biofilm and growth disruption) (microorganisms; S. pneumoniae): S. pneumoniae (M) | Target(s) (microorganism bound by the targeting peptide) (bacteria): Mycobacteria spp

PF-691 (chain 1 HRTVEFGVLGTYLVSGGSL; chain 2 HRTVEFGVLGTYLVSGGSL; Peptide with targeting and/or antimicrobial activity)
Organism, effect (morphology, biofilm and growth disruption) (microorganisms; S. pneumoniae): S. pneumoniae (R) | Target(s) (microorganism bound by the targeting peptide) (bacteria): Mycobacteria spp

PF-692 (chain 1 GVAREDPLEPDPLAPIIDDSR; chain 2 GVAREDPLEPDPLAPIIDDSR; Peptide with targeting and/or antimicrobial activity)
Organism, effect (morphology, biofilm and growth disruption) (microorganisms; MRSA): MRSA (R) | Target(s) (microorganism bound by the targeting peptide) (bacteria): Mycobacteria spp

PF-693 (chain 1 PDPAR; chain 2 PDPAR; Peptide with targeting and/or antimicrobial activity)
Organism, effect (morphology, biofilm and growth disruption) (microorganisms; S. pneumoniae): S. pneumoniae (A) | Target(s) (microorganism bound by the targeting peptide) (bacteria): Mycobacteria spp

PF-694 (chain 1 DLIRPLYSMSAPSVA; chain 2 DLIRPLYSMSAPSVA; Peptide with targeting and/or antimicrobial activity)
Organism, effect (morphology, biofilm and growth disruption) (microorganisms; MRSA): MRSA (R) | Organism, effect (morphology, biofilm and growth disruption) (microorganisms; S. pneumoniae): S. pneumoniae (A) | Target(s) (microorganism bound by the targeting peptide) (bacteria): Mycobacteria spp

PF-695 (chain 1 ALSVMLGNIPLVVPNANQL; chain 2 ALSVMLGNIPLVVPNANQL; Peptide with targeting and/or antimicrobial activity)
Organism, effect (morphology, biofilm and growth disruption) (microorganisms; E. faecalis): E. faecalis (R) | Organism, effect (morphology, biofilm and growth disruption) (microorganisms; MRSA): MRSA (R) | Organism, effect (morphology, biofilm and growth disruption) (microorganisms; S. pneumoniae): S. pneumoniae (C) | Target(s) (microorganism bound by the targeting peptide) (bacteria): Mycobacteria spp

From patent US9597407B2, “Targeted antimicrobial moieties” (C3 Jian, Inc., priority 2009, dated 2017)
